PubChem BioAssay (NCI)
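96-well plates; 48 h exposure; 5 concentrations. Endpoints by linear interpolation between flanking doses. Not reached: highest tested concentration assigned. Abbreviation: GI50, concentration required for 50% inhibition of growth. TGI marks complete inhibition of growth.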

Legend:
Experiment in all cases: inhibition of tumour cell growth, NCI panel, 48 h
SF-539 CNS = tested on: SF-539 CNS
UACC-257 melanoma = tested on: UACC-257 melanoma
OVCAR-8 ovarian = tested on: OVCAR-8 ovarian
MALME-3M melanoma = tested on: MALME-3M melanoma
HOP-92 NSCLC = tested on: HOP-92 NSCLC
NCI-H226 lung = tested on: NCI-H226 lung
SF-295 CNS = tested on: SF-295 CNS
SK-MEL-2 melanoma = tested on: SK-MEL-2 melanoma
PC-3 prostate = tested on: PC-3 prostate
HCT-116 colon = tested on: HCT-116 colon

Compound | TGI (SF-539 CNS) | TGI (UACC-257 melanoma) | TGI (OVCAR-8 ovarian) | TGI (MALME-3M melanoma) | TGI (HOP-92 NSCLC) | TGI (NCI-H226 lung) | TGI (SF-295 CNS) | TGI (SK-MEL-2 melanoma) | TGI (PC-3 prostate) | TGI (HCT-116 colon) | GI50 (SF-539 CNS) | GI50 (UACC-257 melanoma) | GI50 (OVCAR-8 ovarian) | GI50 (MALME-3M melanoma) | GI50 (HOP-92 NSCLC) | GI50 (NCI-H226 lung) | GI50 (SF-295 CNS) | GI50 (SK-MEL-2 melanoma) | GI50 (PC-3 prostate)
N#Cc1nc(CCC(C(=O)O)N2C(=O)c3ccccc3C2=O)oc1N (configuration not stated) | > 100 µM | > 100 µM | > 100 µM | > 100 µM | > 100 µM | > 100 µM | > 100 µM | > 100 µM | > 100 µM |  |  |  |  |  |  |  |  |  | 
CC(=O)OC1=C(c2ccccc2)S(=O)(=O)c2ccccc21 | > 100 µM | > 100 µM | > 100 µM | > 100 µM | > 100 µM | > 100 µM | > 100 µM | > 100 µM | > 100 µM | > 100 µM |  |  |  |  |  |  |  |  | 
CN(C)CCCCN1c2ccccc2Sc2ccc(N=[N+]=[N-])cc21 | 16.8 µM | 3.54 µM | 22.1 µM | 3.17 µM | 13.4 µM | 17.7 µM | 17.8 µM | 9.66 µM | 10.5 µM | 16.3 µM |  |  |  |  |  |  |  |  | 
CC(=O)OC(C(=O)NNC(=O)OC(C)(C)C)c1ccccc1 (configuration not stated) | > 100 µM |  | > 100 µM | > 100 µM | > 100 µM | > 100 µM | > 100 µM | > 100 µM | > 100 µM |  |  |  |  |  |  |  |  |  | 
NS(=O)(=O)c1ccc(NNc2c3ccccc3nc3c(C(=O)Nc4ccc(S(N)(=O)=O)cc4)cccc23)cc1 | > 100 µM | > 100 µM | > 100 µM | 99.8 µM | 73.4 µM | > 100 µM | > 100 µM | 54.4 µM | > 100 µM | > 100 µM |  |  |  |  |  |  |  |  | 
NC(Cc1c2ccccc2cc2ccccc12)C(=O)O (configuration not stated) | > 100 µM | > 100 µM | > 100 µM | > 100 µM | > 100 µM | > 100 µM | > 100 µM | > 100 µM | > 100 µM | > 100 µM |  |  |  |  |  |  |  |  | 
C[N+](C)(C)CC(=O)N/N=C\c1c(O)ccc2ccccc12 | > 100 µM | > 100 µM | > 100 µM | 38.3 µM | 59.3 µM | 85.9 µM | > 100 µM | > 100 µM | > 100 µM | > 100 µM |  |  |  |  |  |  |  |  | 
Nc1nc(NCc2ccccc2)cc(NCc2ccccc2)n1 | 18.3 µM | 21.6 µM | 17.3 µM | 21.7 µM | 21.5 µM | 27.5 µM | 69 µM | 31.2 µM | 16.8 µM | 21.2 µM |  |  |  |  |  |  |  |  | 
N#CC(C#N)=CNC(=S)Nc1ccc(S(=O)(=O)Nc2nccs2)cc1 | > 100 µM | > 100 µM | > 100 µM |  | > 100 µM | > 100 µM | > 100 µM | > 100 µM |  | > 100 µM |  |  |  |  |  |  |  |  | 
C=C1C(=O)O[C@H]2[C@@H]3O[C@@](C)(CC/C=C(\C)CCC[C@@H]2C)[C@H](O)C[C@@H]13 | 5.6 µM | 27.4 µM | 17.1 µM | 53.3 µM | > 100 µM | 5.89 µM | 27.8 µM | 27 µM | 22.1 µM | > 100 µM |  |  |  |  |  |  |  |  | 
COc1ccc2c(c1)SC1=Nc3sc4cc(OC)ccc4[n+]3CN12 | > 100 µM | > 100 µM | > 100 µM | 57 µM | 14.6 µM |  | > 100 µM | 65.3 µM | > 100 µM | > 100 µM |  |  |  |  |  |  |  |  | 
C/C(=N\NC(N)=O)C(CN1CCOCC1)C(c1ccccc1)c1c(O)c2ccccc2oc1=O (configuration not stated) | > 100 µM | > 100 µM | > 100 µM | > 100 µM | > 100 µM | > 100 µM |  | > 100 µM | > 100 µM | > 100 µM |  |  |  |  |  |  |  |  | 
CC(=O)Nc1ccc2c3c(cc(O)c2c1)N(C(=O)CCCCCCC(=O)Nc1ccc2c4c(cc(O)c2c1)N(C(=O)OC(C)(C)C)CC4CCl)CC3CCl (configuration not stated) | 0.396 µM | 0.439 µM | > 32.9 µM |  | 4.11 µM | 0.463 µM | 0.957 µM | 0.0593 µM |  | 11.9 µM |  |  |  |  |  |  |  |  | 
O=C1/C(=C/c2ccc(Cl)cc2)NC(=S)N1CN1CCCCC1 |  |  | > 100 µM | 88.7 µM | > 100 µM | > 100 µM | > 100 µM | > 100 µM | > 100 µM | > 100 µM |  |  |  |  |  |  |  |  | 
CCOP(=O)(OCC)/C(F)=C/c1ccc(F)cc1 | > 100 µM | > 100 µM | > 100 µM | > 100 µM | > 100 µM |  | > 100 µM | > 100 µM | > 100 µM | > 100 µM |  |  |  |  |  |  |  |  | 
COc1cc(/C=C2\C(=O)Nc3ccc(O)cc32)cc(OC)c1OC | 81.5 µM | 22.1 µM | 65.6 µM | 44.4 µM | 30.2 µM | 54.4 µM | > 100 µM | 34.7 µM | 19.1 µM |  | 5.86 µM | 8.48 µM | 18.3 µM | 17.9 µM | 7.92 µM | 21.1 µM | 26.4 µM | 13.6 µM | 2.4 µM
O=C(O)OC12CCCCCC1C(=O)C1CCCCC12 (configuration not stated) |  | > 100 µM | > 100 µM | > 100 µM |  | > 100 µM | > 100 µM | > 100 µM |  | > 100 µM |  |  |  |  |  |  |  |  | 
C/C(=C\COP(=O)(O)CP(=O)(O)O)CC/C=C(\C)CNc1ccccc1 | > 100 µM | > 100 µM | > 100 µM |  |  | > 100 µM | > 100 µM | > 100 µM | > 100 µM | > 100 µM |  |  |  |  |  |  |  |  | 
CSC(SC)=C1Sc2cccc(Cl)c2S1 | > 100 µM | > 100 µM | > 100 µM | > 100 µM | 65.8 µM | > 100 µM | > 100 µM | 48.8 µM |  | > 100 µM |  |  |  |  |  |  |  |  | 
COc1ccc(CCN2C(=O)C(=O)C(C(=O)c3ccccc3)C2c2ccccc2)cc1OC (configuration not stated) | > 100 µM | > 100 µM | > 100 µM | > 100 µM | > 100 µM |  | > 100 µM | > 100 µM | > 100 µM | > 100 µM |  |  |  |  |  |  |  |  | 
Nc1cc2c(C3OC(CO)C(O)C3O)[nH]nc2c(=S)[nH]1 (configuration not stated) | > 100 µM | > 100 µM | > 100 µM | > 100 µM | > 100 µM | > 100 µM | > 100 µM | > 100 µM |  | > 100 µM |  |  |  |  |  |  |  |  | 
COc1ccc(C2OC2C(=O)C23CC4CC(CC(C4)C2)C3)cc1 (configuration not stated) | > 100 µM | > 100 µM | > 100 µM | > 100 µM | > 100 µM | > 100 µM | > 100 µM |  | > 100 µM | > 100 µM |  |  |  |  |  |  |  |  | 
